The values that follow come from US20230091810A1, “FIRST-IN-CLASS OF SHMT2 AND MTHFD2 INHIBITORS AS ANTITUMOR AGENTS” (Duquesne University of the Holy Spirit, priority 2017, published 2023).

For one test, the system named is PC43-10 (RFC) (CHO). The test can be described thus: proliferation assay, PC43-10 CHO cells expressing RFC only. It counts as cell-based, Chinese hamster. As to conditions: folate-/glycine-free RPMI1640 with 25 nM leucovorin, 96 h, drug 0-1000 nM, read-out: IC50s (SE) PC43-10 (RFC) (CHO). How it is done: (§1) Proliferation assays were performed with engineered Chinese hamster ovary (CHO) cell lines R2 (transporter-null), PC43-10 (expresses RFC only), RT16 (FRα only), and R2/PCFT4 (PCFT only) cultured in folate-/glycine-free RPMI1640 supplemented with 25 nM leucovorin. Additional results are shown for HCT116 (colon tumor cells (CTC)), IGROV1 (epithelial ovarian cancer (EOC) cells), H460 (non-small cell lung cancer (NSCLC) cells), MIAPaCa-2 (pancreatic cancer (PaC) cells), and HPAC (PaC).
(§2) Cell culture and proliferation/protection assays. The HCT116 cell lines including the serine hydroxymethyltransferase (SHMT) 1, SHMT2, and methylene THF dehydrogenase 2 (MTHFD2) knockout (KO) cells were previously described (47,53). The H460 cell line was obtained from the American Type Culture Collection (Manassas, VA), whereas the MIA PaCa-2 cells were provided by Dr. Yubin Ge (Karmanos Cancer Institute). Cell lines were verified by STR analysis by Genetica DNA Laboratories (Burlington, NC). MTXRIIOua^R2-4 (i.e. R2) Chinese hamster ovary (CHO) cells were generously provided by Dr. Wayne Flintoff (University of Western Ontario) (54). From this parental R2 cell line, human RFC and PCFT were individually transfected to generate the isogenic CHO cell lines designated PC43-10 (RFC) and R2/PCFT4 (PCFT) (55-57). Human tumor cell lines were cultured in folate-free RPMI supplemented with 10% dialyzed fetal bovine serum (Sigma-Aldrich), 1% penicillin/streptomycin solution, 2 mM L-glutamine, and 25 nM leucovorin in a humidified atmosphere at 37° C. in the presence of 5% CO2 and 95% air. The CHO cell lines were cultured in alpha-minimal essential medium (alpha-MEM) supplemented with 10% bovine calf serum, 1% penicillin/streptomycin solution, and 2 mM L-glutamine. Additionally, the transfected CHO cell lines (i.e. R2/PCFT4 and PC43-10) were maintained under continuous selection with 1 mg/ml of G418.
For proliferation assays with the CHO cell lines, the cells were treated with drugs (0-1 µM) in a 96-well plate (2000 cells/well) in glycine-free, nucleoside-free folate-free RPMI supplemented with 10% dialyzed fetal bovine serum, 1% penicillin/streptomycin, 2 mM L-glutamine, and 25 nM leucovorin (final volume 200 µL) over a 96 h incubation period at 37° C. with 5% CO2. […] To quantify viable cells, the media was removed and plates were washed once with 100 µL Dulbecco’s Phosphate-Buffered Saline (PBS), after which 100 µL PBS and 20 µL Cell Titer-blue (Promega) were added. Relative cell numbers were proportional to the fluorescence measured with a fluorescence plate reader (590 nm emission, 560 nm excitation). Background fluorescence (cell-free wells treated with Cell Titer-blue) was subtracted and these corrected values were normalized to results for cells treated in an identical manner without drugs.

The test system of another test is IGROV1 (EOC). The test is described as follows: proliferation assay, IGROV1 epithelial ovarian cancer cells. The following applies: folate-/glycine-free RPMI1640 with 25 nM leucovorin, read-out: IC50s (SE) IGROV1 (EOC). It counts as cell-based, human. How it is done:
as §1
(§3) For proliferation assays of the HCT116, H460, and MIA PaCa2 tumor cell lines, the cells were plated in 96-well plates in an identical manner to the CHO experiments, except that the maximal drug concentration was increased to 10 µM. Glycine/nucleoside protection experiments in CHO and tumor cell lines were performed in folate- and glycine-free RPMI 1640/10% dialyzed fetal bovine serum supplemented with 25 nM leucovorin without additions, or in the presence of adenosine (60 µM), thymidine (10 µM), glycine (130 µM) and/or 5-aminoimidazole-4-carboxamide (AICA) (320 µM). Growth of metabolite-treated cells was normalized to controls treated with metabolites and vehicle (i.e., DMSO) both singly and in combination. Treatments with all metabolites were performed in parallel on the same plate for a given drug.

Another test has as its system H460 (NSCLC). The test is described as follows: proliferation assay, H460 non-small cell lung cancer cells. As to conditions: folate-/glycine-free RPMI1640 with 25 nM leucovorin, 96 h, read-out: IC50s (SE) H460 (NSCLC). It counts as cell-based, human. How it is done:
as §1
as §2, with “G418. […]” for “G418.”

For a further test, the system named is MIA PaCa-2 (PaC). The test can be described thus: proliferation assay, MIA PaCa-2 pancreatic cancer cells. As to conditions: folate-/glycine-free RPMI1640 with 25 nM leucovorin, 96 h, read-out: IC50s (SE) MIA PaCa-2 (PaC). The test is classed as cell-based, human. How it is done: as §1, §2, §3
The next test has as its system HPAC (PaC). The test is described as follows: proliferation assay, HPAC pancreatic cancer cells. It counts as cell-based, human. As to conditions: folate-/glycine-free RPMI1640 with 25 nM leucovorin, read-out: IC50s (SE) HPAC (PaC). How it is done:
as §1, §3

Where two headings read alike, the source gives them in different places.

`Nc1nc2ccn(CCCc3ccc(C(=O)N[C@@H](CCC(=O)O)C(=O)O)cc3)c2c(=O)[nH]1` [AGF291]: the IC50 turned out to be 454 nM with PC43-10 (RFC) (CHO) (Cricetulus griseus, PC43-10); 443 nM with IGROV1 (EOC) (Homo sapiens, IGROV-1); 461 nM in the test with H460 (NSCLC) (Homo sapiens, NCI-H460); 3660 nM in the test on MIA PaCa-2 (PaC) (Homo sapiens, MIA PaCa-2); 301 nM with HPAC (PaC) (Homo sapiens, HPAC).
Take `Nc1nc2ccn(CCCCCc3ccc(C(=O)N[C@@H](CCC(=O)O)C(=O)O)s3)c2c(=O)[nH]1` [AGF320]: the IC50 in the test on PC43-10 (RFC) (CHO) was over 1000 nM; in the test on IGROV1 (EOC) it was 401 nM; in the test on H460 (NSCLC) it was 573 nM; with MIA PaCa-2 (PaC), 2270 nM; in the test with HPAC (PaC), 190 nM.
Consider “(2-amino-4-oxo-3,4-dihydro-5H-pyrrolo[3,2-d]pyrimidin-5-yl)butyl)-2-fluorobenzoyl)-L-glutamic acid [AGF347]”, for which the IC50 is 224 nM in the test with PC43-10 (RFC) (CHO); 62 nM with IGROV1 (EOC); 214 nM with H460 (NSCLC); 1380 nM with MIA PaCa-2 (PaC); 764 nM in the test on HPAC (PaC).
